Structures are written as SMILES. In brackets after ≈: the same amount, converted by molar mass. Like-named read-outs stand apart in the source and are kept apart here. Where only a bound is given, the exact number is not on record here.

The values that follow come from patent publication EP4752152A1, “STEROID COMPOUND, AND PREPARATION METHOD THEREFOR AND USE THEREOF” (Cholesgen (Shanghai) Co.Ltd., priority 2023, dated 2025).

Series [1] in a line: Metabolic stability experiment of mouse liver microsomes. It counts as in vitro ADME. As for the experimental part: PB solution (100 mM), MgCl2 solution (300 mM), NADPH solution (2.04 mM), and mouse liver microsome (SHQY catalog number: M1000, batch number: 2110330) solution (1.00 mg/mL) were prepared respectively. […] Then, 100 µL of mouse liver microsome solution was added to a 96-well sample plate. For the 0 min sample, acetonitrile solution containing the internal standard was first added; then, 2 µL of 100 µM working solution was added; followed by the addition of 98 µL of pre-warmed 2.04 mM NADPH at 37°C. For the 5 min, 15 min, 30 min, 45 min, and 60 min samples, 2 µL of 100 µM working solution was first added; followed by the addition of 98 µL of pre-warmed 2.04 mM NADPH at 37°C to initiate the reaction; upon reaching the respective time points, a solution of acetonitrile containing the internal standard was added to terminate the reaction. For the NCF60 sample, 2 µL of 100 µM working solution was first added; followed by the addition of 98 µL of pre-warmed PB at 37°C to initiate the reaction; upon reaching the respective time points, a solution of acetonitrile containing the internal standard was added to terminate the reaction. During the experiment, all samples were incubated in a 37°C water bath. All samples were shaken on an oscillator at 800 rpm for 10 min, then centrifuged at 3200 g for 20 min. The supernatant was aspirated, diluted with deionized water at the corresponding ratio, and analyzed by LC-MS/MS. The remaining percentage of the compound at each time point was obtained by dividing the peak area ratio of the compound at 5, 15, 30, 45, and 60 min by the peak area ratio at 0 min. The half-life (T1/2) of the compound was then calculated using Excel. Table 2: Mouse liver microsome stability results of compounds from some examples
Background: Liver microsomes are vesicles of endoplasmic reticulum, rich in cytochrome P450 enzymes.

Another series concerns SREBP pathway. The experiment in a line: SREBP luciferase reporter gene system (SRE-luciferase assay). It counts as cell-based, human. The settings on record: Huh-7/SRE-luc cells, sterol-deficient medium, 0.01-10 µM. The gist of the method: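 Readout was SRE-driven luciferase normalised to GFP fluorescence in lysates of stably transfected Huh-7/SRE-luc hepatoma cells. Compounds (0.01, 0.03, 0.1, 0.3, 1.0, 3.0, 10 µM; DMSO control) were applied for 16 h in sterol-depleted medium with 2 µM lovastatin and 10 µM mevalonate; IC50 from variable-slope fit.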
(Reporter assays use an easily measured gene product as a stand-in for the process of interest.)

Series [2] relates to Fatty Acid Synthase (FASN) gene. Briefly: Inhibition of FASN gene expression (qPCR) in Huh-7 cells. It is filed as cell-based, human. The settings on record: read-out: FASN IC50. The gist of the method: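 IC50 derived by four-parameter fit of FASN expression inhibition versus DMSO, measured by RT-qPCR. Compound exposure lasted 16 h at five 3-fold concentrations from 3000 nM, applied to Huh-7 cells in sterol-depleting medium with 5% LPDS, 2 µM lovastatin and 10 µM mevalonate.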
For orientation: Real-time PCR tracks product formation cycle by cycle.

Series [3] can be described thus: Solubility in fasted-state simulated intestinal fluid (FaSSIF). It counts as physicochemical. The settings on record: FaSSIF, pH 6.5, fassif, kinetic from dmso stock, FaSSIF pH 6.5, 300 µM sample solution, room temperature. As for the experimental part: Compound powder was dissolved in DMSO to prepare a 10.0 mM stock solution for later use. 0.021 g NaOH, 0.198 g NaH2PO4, and 0.309 g NaCl were weighed and added to 50.0 mL of ultrapure water. After thorough mixing, the pH was adjusted to 6.5 using HCl or NaOH. Then, 0.112 g of FaSSIF powder was added. After complete dissolution, the solution was allowed to stand at room temperature for 2 hours for later use. A certain volume of the compound stock solution was added to a certain volume of FaSSIF to prepare a 300 µM sample solution, which was mixed at room temperature under 1000 rpm for 1 hour. After 1 hour, the sample was centrifuged, and a certain volume of supernatant was taken. The termination solution was added to precipitate the sample, which was then thoroughly mixed and centrifuged for 20 minutes. The supernatant was then taken again, diluted with dilution solution, and then analyzed by liquid chromatography-tandem mass spectrometry (LC-MS/MS). The concentration of the test compound in the samples was quantitatively determined using LC-MS/MS. Table 3: FaSSIF solubility results of compounds from some examples

Where [4] appears, read: Homo sapiens, Huh-7, 16 h, Huh-7 cells, starvation medium, 16 hours, qPCR, class symbols.

With `C[C@H](CCCC(O)c1cccc2c1OC(F)(F)O2)[C@H]1CC[C@H]2[C@H]3[C@H](CC[C@]12C)[C@@]1(C)CC[C@H](O)[C@H](O)[C@@H]1CC3(F)F` (stereo partly drawn) [Compound 77, (1R,3aS,3bS,5aR,6R,7S,9aR,9bS,11aR)-1-[(2R)-6-(2,2-difluorobenzo[d][1,3]dioxol-4-yl)-6-hydroxyhexan-2-yl]-4,4-difluoro-9a,11a-dimethylhexadecahydro-1H-cyclopenta[1,2-a]phenanthrene-6,7-diol], the half-life at 1 µM in series [1] is > 185 min. Further, the concentration for half-maximal inhibition (IC50) is 0.17 µM in the series on SREBP pathway (Homo sapiens, Huh-7, 16 h) and < 200 nM in series [2] (setting [4]).
In turn, `COc1nccc(F)c1C(O)CCC[C@@H](C)[C@H]1CC[C@H]2[C@H]3[C@H](CC[C@]12C)[C@@]1(C)CC[C@H](O)[C@H](O)[C@@H]1CC3(F)F` (stereo partly drawn) [Compound 126, (1R,3aS,3bS,5aR,6R,7S,9aR,9bS,11aR)-4,4-difluoro-1-[(2R)-6-(4-fluoro-2-methoxypyridin-3-yl)-6-hydroxyhexan-2-yl]-9a,11a-dimethylhexadecahydro-1H-cyclopenta[1,2-a]phenanthrene-6,7-diol] returned a half-life at 1 µM in series [1] of 108 min. Also, the half-inhibitory concentration (IC50) in the series with SREBP pathway (Homo sapiens, Huh-7, 16 h) was found to be 0.153 µM.
As to `COc1cccc([C@@H](O)CCC[C@@H](C)[C@H]2CC[C@H]3[C@H]4[C@H](CC[C@]23C)[C@@]2(C)CC[C@H](O)[C@H](O)[C@@H]2CC4(F)F)c1OC` [Compound 70, (1R,3aS,3bS,5aR,6R,7S,9aR,9bS,11aR)-1-[(2R,6S)-6-(2,3-dimethoxyphenyl)-6-hydroxyhexan-2-yl]-4,4-difluoro-9a,11a-dimethylhexadecahydro-1H-cyclopenta[1,2-a]phenanthrene-6,7-diol], the half-life at 1 µM in series [1] came to 34.9 min. The half-inhibitory concentration (IC50) with SREBP pathway (Homo sapiens, Huh-7, 16 h) is 0.211 µM; in series [2] (setting [4]), < 200 nM.
For `C[C@H](CCCC(O)c1ccccc1F)[C@H]1CC[C@H]2[C@H]3[C@H](CC[C@]12C)[C@@]1(C)CC[C@H](O)C(=O)[C@@H]1CC3(F)F` (stereo partly drawn) [Compound 11, (1R,3aS,3bS,5aR,7S,9aR,9bS,11aR)-4,4-difluoro-1-[(2R)-6-(2-fluorophenyl)-6-hydroxyhexan-2-yl]-7-hydroxy-9a,11a-dimethylhexadecahydro-1H-cyclopenta[1,2-a]phenanthren-6-one] the same measures were 49.1 min, 0.19 µM and 200 to 500 nM.
On to `CCOc1nc(F)ccc1[C@H](O)CCC[C@@H](C)[C@H]1CC[C@H]2[C@H]3[C@H](CC[C@]12C)[C@@]1(C)CC[C@H](O)[C@H](O)[C@@H]1CC3(F)F` (single isomer, unassigned) [Compound 283], for which the IC50 with SREBP pathway (Homo sapiens, Huh-7, 16 h) is 0.027 µM; in series [2] (setting [4]), < 200 nM. In series [3], this compound had a solubility at 1 h of 288 µM (≈ 163 µg/mL).
In series [1], `C[C@H](CCCC(O)c1ccccc1OC(F)(F)F)[C@H]1CC[C@H]2[C@H]3[C@H](CC[C@]12C)[C@@]1(C)CC[C@H](O)C(=O)[C@@H]1CC3(F)F` (stereo partly drawn) [Compound 97, (1R,3aS,3bS,5aR,7S,9aR,9bS,11aR)-4,4-difluoro-7-hydroxy-1-[(2R)-6-hydroxy-6-{2-[(trifluoromethyl)oxy]phenyl}hexan-2-yl]-9a,11a-dimethylhexadecahydro-1H-cyclopenta[1,2-a]phenanthren-6-one] displayed a half-life at 1 µM of 107 min. Further, the IC50 in the series on SREBP pathway (Homo sapiens, Huh-7, 16 h) was 0.0741 µM; in series [2] (setting [4]), < 200 nM.
In turn, `COc1cccc(F)c1C(O)CCC[C@@H](C)[C@H]1CC[C@H]2[C@@H]3CC[C@H]4[C@@H](O)[C@@H](O)CC[C@]4(C)[C@H]3CC[C@]12C` (stereo partly drawn) [Compound 20, 24-[(2-Fluoro-6-methoxyphenyl)(hydroxy)methyl]-5α-cholane-3β,4β-diol] showed a half-life at 1 µM in series [1] of 29.9 min. Besides, in the series on SREBP pathway (Homo sapiens, Huh-7, 16 h), the half-maximal inhibitory concentration (IC50) amounted to 0.23 µM.
Take `COc1cccc(C(O)CCC[C@@H](C)[C@H]2CC[C@H]3C4=C(F)C[C@H]5[C@@H](O)[C@@H](O)CC[C@]5(C)[C@H]4CC[C@]23C)c1F` (stereo partly drawn) [Compound 64, (1R,3aR,5aR,6R,7S,9aR,9bR,11aR)-4-fluoro-1-[(2R)-6-(2-fluoro-3-methoxyphenyl)-6-hydroxyhexan-2-yl]-9a,11a-dimethyl-2,3,3a,5,5a,6,7,8,9,9a,9b,10,11,11a-tetradecahydro-1H-cyclopenta[1,2-a]phenanthrene-6,7-diol]: the half-life at 1 µM in series [1] worked out at 69.7 min. In addition, the IC50 with SREBP pathway (Homo sapiens, Huh-7, 16 h) was 0.318 µM; in series [2] (setting [4]), < 200 nM.
In turn, `C[C@H](CCC1CC(N)C1)[C@H]1CC[C@H]2[C@@H]3CC[C@H]4C[C@@H](O)CC[C@]4(C)[C@H]3CC[C@]12C` (stereo partly drawn) [Compound 136, (20R)-20-[2-(3-aminocyclobutyl)ethyl]-5α-pregnan-3β-ol] showed a half-life at 1 µM in series [1] of 96.2 min.
With `C[C@H](CCCC(O)c1ccc2c(n1)OC(F)(F)O2)[C@H]1CC[C@H]2[C@H]3[C@H](CC[C@]12C)[C@@]1(C)CC[C@H](O)[C@H](O)[C@@H]1CC3(F)F` (single isomer, unassigned) [Compound 265], the IC50 in the series on SREBP pathway (16 hours) is 0.006 µM; in series [2] (Homo sapiens, Huh-7, 16 h), < 200 nM. This compound yielded a solubility at 1 h in series [3] of 107 µM (≈ 62.9 µg/mL).
As for `C[C@H](CCCC(O)c1cccc2c1OC(F)(F)O2)[C@H]1CC[C@H]2[C@H]3[C@H](CC[C@]12C)[C@@]1(C)CC[C@H](O)[C@H](O)[C@@H]1CC3(F)F` (single isomer, unassigned) [Compound 195, (1R,3aS,3bS,5aR,6R,7S,9aR,9bS,11aR)-1-[(2R,6R)-6-(2,2-difluorobenzo[d][1,3]dioxol-4-yl)-6-hydroxyhexan-2-yl]-4,4-difluoro-9a,11a-dimethylhexadecahydro-1H-cyclopenta[1,2-a]phenanthrene-6,7-diol or (1R,3aS,3bS,5aR,6R,7S,9aR,9bS,11aR)-1-[(2R,6S)-6-(2,2-difluorobenzo[d][1,3]dioxol-4-yl)-6-hydroxyhexan-2-yl]-4,4-difluoro-9a,11a-dimethylhexadecahydro-1H-cyclopenta[1,2-a]phenanthrene-6,7-diol], the IC50 with SREBP pathway (16 hours) is 0.067 µM; in series [2] (Huh-7 cells, starvation medium, 16 hours, qPCR, class symbols), < 200 nM. Moreover, the solubility at 1 h in series [3] was 244 µM (≈ 143 µg/mL).
On to `COc1nc(F)ccc1[C@H](O)CC[C@@H](C)[C@H]1CC[C@H]2[C@H]3[C@H](CC[C@]12C)[C@@]1(C)CC[C@H](O)[C@H](O)[C@@H]1CC3(F)F` [Compound 338, (1R,3aS,3bS,5aR,6R,7S,9aR,9bS,11aR)-4,4-difluoro-1-[(2R,5R)-5-(6-fluoro-2-methoxypyridin-3-yl)-5-hydroxypentan-2-yl]-9a,11a-dimethylhexadecahydro-1H-cyclopenta[1,2-a]phenanthrene-6,7-diol], for which the half-maximal inhibitory concentration (IC50) in the series with SREBP pathway (Homo sapiens, Huh-7, 16 h) is 0.143 µM; in series [2] (setting [4]), < 200 nM. Moreover, in series [3], the solubility at 1 h was 34.7 µM (≈ 18.7 µg/mL).
`COc1cc(F)ccc1C(O)CCC[C@@H](C)[C@H]1CC[C@H]2C3=C(F)C[C@H]4[C@@H](O)[C@@H](O)CC[C@]4(C)[C@H]3CC[C@]12C` (stereo partly drawn) [Compound 36, (1R,3aR,5aR,6R,7S,9aR,9bR,11aR)-4-fluoro-1-[(2R)-6-(4-fluoro-2-methoxyphenyl)-6-hydroxyhexan-2-yl]-9a,11a-dimethyl-2,3,3a,5,5a,6,7,8,9,9a,9b,10,11,11a-tetradecahydro-1H-cyclopenta[1,2-a]phenanthrene-6,7-diol]: in series [1], the half-life at 1 µM is > 186 min. For the same compound, the IC50 with SREBP pathway (Homo sapiens, Huh-7, 16 h) was found to be 0.2 µM.

The half-life is the time in which the quantity being followed falls by half. A low value points to rapid decline. By IC50 is commonly meant the midpoint of a concentration-inhibition curve. One may read the solubility as the concentration that dissolves in the medium under given conditions. The low end stands for a poorly soluble substance, the high end for a readily soluble substance.
